Laboratory results reported in patent publication US6734292B1, “Pseudoerythromycin derivatives” (The Kitasato Institute, priority 2002, dated 2004).

Test system: THP-1 cells
Experiment: enhancing effect for differentiation-induction from human monocyte to macrophage (THP-1/Mφ system, MTT readout)
Assay type: cell-based
Set-up: key: ++: enhanced 100% or more; +: enhanced 50-100%; ±: enhanced 25-50%; −: no activity; /: expressed cytoxicity; NT: not tested or under assessment
Settings: in comparison with enhancing action for differentiation-induction of EM 100 μM
Method: In order to confirm enhancing effect for differentiation-induction of the compounds of the present invention, the enhancing effect for differentiation-induction from human monocyte to macrophage was assayed. Method is performed as follows. THP-1 cells were collected from cultured liquid by centrifugation, adjusted the concentration to 2×10^5 cells/ml using medium (RPMI 1640) and distributed into the 48-well plate at 500 μl/well. PMA solution 10 μl and sample solution 5 μl were added in each well, stirred with mild shaking and incubated at 37° C. for 72-96 hours under 5% CO2. Further MTT 0.5 mg/ml solution was added at 300 μl/well, and incubated at 37° C. for 3 hours under 5% CO2. Supernatant solution was suctioned using the injection tube, added DMSO 500 μl using automatic continuous injector to dissolve formazan completely and transferred each 100 μl to the 96-well plate. The optical absorption was measured using the plate-reader.

| SMILES | activities in THP-1/Mφ system, Treated conc. 3 μM | activities in THP-1/Mφ system, Treated conc. 10 μM | activities in THP-1/Mφ system, Treated conc. 30 μM | activities in THP-1/Mφ system, Treated conc. 0.3 μM | activities in THP-1/Mφ system, Treated conc. 1 μM |
| --- | --- | --- | --- | --- | --- |
| CC[C@H]1OC(=O)[C@H](C)[C@@H](O[C@H]2C[C@@](C)(OC)[C@@H](O)[C@H](C)O2)[C@H](C)[C@@H](O[C@@H]2O[C@H](C)C[C@H](N(C)C)[C@H]2O)[C@](C)(OC)C[C@@H](C)C(=O)[C@H](C)[C@@H](O)[C@]1(C)O [CAM, reference compound] | − | + (enhanced 50-100%) | − |  |  |
| CCC(O)C(C)(O)C1OC(=O)C(C)C(OC2CC(C)(OC)C(O)C(C)O2)C(C)C(OC2OC(C)CC(N)C2O)C2(C)CC(C)=C(O2)C1C (stereo not drawn) [EM721, bis-de(3′-N-methyl)-8,9-anhydro-pseudo erythromycin A 6,9-hemiketal] | − | + (enhanced 50-100%) |  |  |  |
| CCNC1CC(C)OC(OC2C(C)C(OC3CC(C)(OC)C(O)C(C)O3)C(C)C(=O)OC(C(C)(O)C(O)CC)C(C)C3=C(C)CC2(C)O3)C1O (stereo not drawn) [EM722, bis-de(3′-N-methyl)-3′-N-ethyl-8,9-anhydro-pseudoerythromycin A 6,9-hemiketal] | + (enhanced 50-100%) | ++ (enhanced 100% or more) |  | − | + (enhanced 50-100%) |
| CC[C@@H](O)[C@@](C)(O)[C@@H]1OC(=O)[C@H](C)[C@@H](O[C@H]2C[C@@](C)(OC)[C@@H](O)[C@H](C)O2)[C@H](C)[C@@H](O[C@@H]2O[C@H](C)C[C@H](N(CC)CC)[C@H]2O)[C@@]2(C)CC(C)=C(O2)[C@@H]1C [EM723, bis-de(3′-N-methyl)-3′,3′-N,N-diethyl-8,9-anhydro-pseudoerythromycin A 6,9-hemiketal] | + (enhanced 50-100%) |  |  | − | + (enhanced 50-100%) |
| C=CCNC1CC(C)OC(OC2C(C)C(OC3CC(C)(OC)C(O)C(C)O3)C(C)C(=O)OC(C(C)(O)C(O)CC)C(C)C3=C(C)CC2(C)O3)C1O (stereo not drawn) [EM724, bis-de(3′-N-methyl)-3′-N-allyl-8,9-anhydro-pseudoerythromycin A 6,9-hemiketal] | + (enhanced 50-100%) | ++ (enhanced 100% or more) |  | − | + (enhanced 50-100%) |
| C=CCN(CC=C)C1CC(C)OC(OC2C(C)C(OC3CC(C)(OC)C(O)C(C)O3)C(C)C(=O)OC(C(C)(O)C(O)CC)C(C)C3=C(C)CC2(C)O3)C1O (stereo not drawn) [EM725, bis-de(3′-N-methyl)-3′,3′-N,N-diallyl-8,9-anhydro-pseudoerythromycin A 6,9-hemiketal] | ± (enhanced 25-50%) | + (enhanced 50-100%) |  |  | − |
| CCC(O)C(C)(O)C1OC(=O)C(C)C(OC2CC(C)(OC)C(O)C(C)O2)C(C)C(OC2OC(C)CC(NC(C)=O)C2O)C2(C)CC(C)=C(O2)C1C (stereo not drawn) [EM726, bis-de(3′-N-methyl)-3′-N-acetyl-8,9-anhydro-pseudoerythromycin A 6,9-hemiketal] | − | − | − | − | − |
| CCC(O)C(C)(O)C1OC(=O)C(C)C(OC2CC(C)(OC)C(O)C(C)O2)C(C)C(OC2OC(C)CC(N(C)S(C)(=O)=O)C2O)C2(C)CC(C)=C(O2)C1C (stereo not drawn) [EM727, de(3′-N-methyl)-3′-N-sulfonyl-8,9-anhydro-pseudoerythromycin A 6,9-hemiketal] | + (enhanced 50-100%) | + (enhanced 50-100%) |  | − | + (enhanced 50-100%) |
| C#CCNC1CC(C)OC(OC2C(C)C(OC3CC(C)(OC)C(O)C(C)O3)C(C)C(=O)OC(C(C)(O)C(O)CC)C(C)C3=C(C)CC2(C)O3)C1O (stereo not drawn) [EM728, bis-de(3′-N-methyl)-3′-N-propargyl-8,9-anhydro-pseudoerythromycin A 6,9-hemiketal] | + (enhanced 50-100%) | + (enhanced 50-100%) | + (enhanced 50-100%) | − | + (enhanced 50-100%) |
| C#CCN(CC#C)C1CC(C)OC(OC2C(C)C(OC3CC(C)(OC)C(O)C(C)O3)C(C)C(=O)OC(C(C)(O)C(O)CC)C(C)C3=C(C)CC2(C)O3)C1O (stereo not drawn) [EM729, bis-de(3′-N-methyl)-3′,3′-N,N-di-propargyl-8,9-anhydro-pseudoerythromycin A 6,9-hemiketal] | ± (enhanced 25-50%) | ± (enhanced 25-50%) |  | − | ± (enhanced 25-50%) |
| CCCNC1CC(C)OC(OC2C(C)C(OC3CC(C)(OC)C(O)C(C)O3)C(C)C(=O)OC(C(C)(O)C(O)CC)C(C)C3=C(C)CC2(C)O3)C1O (stereo not drawn) [EM730, bis-de(3′-N-methyl)-3′-N-propyl-8,9-anhydro-pseudoerythromycin A 6,9-hemiketal] | + (enhanced 50-100%) |  |  | + (enhanced 50-100%) | + (enhanced 50-100%) |
| CCCN(CCC)C1CC(C)OC(OC2C(C)C(OC3CC(C)(OC)C(O)C(C)O3)C(C)C(=O)OC(C(C)(O)C(O)CC)C(C)C3=C(C)CC2(C)O3)C1O (stereo not drawn) [EM731, bis-de(3′-N-methyl)-3′,3′-N,N-di-propyl-8,9anhydro-pseudoerythromycin A 6,9-hemiketal] | + (enhanced 50-100%) |  |  | − | − |
| CCC(O)C(C)(O)C1OC(=O)C(C)C(OC2CC(C)(OC)C(O)C(C)O2)C(C)C(OC2OC(C)CC(NCc3ccccc3)C2O)C2(C)CC(C)=C(O2)C1C (stereo not drawn) [EM732, bis-de(3′-N-methyl)-3′-N-benzyl-8,9-anhydro-pseudoerythromycin A 6,9-hemiketal] | + (enhanced 50-100%) | + (enhanced 50-100%) |  | + (enhanced 50-100%) | + (enhanced 50-100%) |
| CCC(O)C(C)(O)C1OC(=O)C(C)C(OC2CC(C)(OC)C(O)C(C)O2)C(C)C(OC2OC(C)CC(N(Cc3ccccc3)Cc3ccccc3)C2O)C2(C)CC(C)=C(O2)C1C (stereo not drawn) [EM733, bis-de(3′-N-methyl)-3′,3′-N,N-di-benzyl-8,9-anhydro-pseudoerythromycin A 6,9-hemiketal] | ± (enhanced 25-50%) |  |  | − | ± (enhanced 25-50%) |
| CCC(O)C(C)(O)C1OC(=O)C(C)C(OC2CC(C)(OC)C(O)C(C)O2)C(C)C(OC2OC(C)CC(N3CCCC3)C2O)C2(C)CC(C)=C(O2)C1C (stereo not drawn) [EM735, de(3′-dimethylamino)-3′-pyrrolidino-8,9-anhydro-pseudoerythromycin A 6,9-hemiketal] | + (enhanced 50-100%) | ++ (enhanced 100% or more) |  | − | ± (enhanced 25-50%) |
